Patent publication US6586369B1, “Fungicidal agents containing pyrrolidones as their active agents and use thereof for treating plants” (BASF Aktiengesellschaft, priority 2000, dated 2003)

Experiments:
harmful fungi = experiment: Fungicidal activity, general statement, no test named; conditions: no test conditions given

Row | Structure (SMILES) | melting point [°C] | fungicidal activity (in words) (harmful fungi)
1 | O=C1C(Cl)=C(c2ccccc2)C(=O)N1Nc1ccccc1 [No. 1, 1-Anilino-3-chloro-4-phenylpyrrol-2,5-dione] | 143 to 145 | excellent fungicidal activity
2 | O=C1C(Br)=C(c2ccccc2)C(=O)N1Nc1ccccc1 [No. 486, 1-Anilino-3-bromo-4-phenylpyrrol-2,5-dione] | 148 to 149 | –
3 | C[S+]([O-])C1=C(c2ccccc2)C(=O)N(Nc2ccccc2)C1=O (stereo not shown) [No. 1042, 1-Anilino-3-methylsulfinyl-4-phenylpyrrol-2,5-dione] | 178 to 180 | –
